Laboratory results taken from ChEMBL document CHEMBL1130813, “Novel euglycemic and hypolipidemic agents: Part-2. Antioxidant moiety as structural motif” (1998).
The source made the active and inactive calls. The rule behind the calls is not given here.

How the values were obtained:
Mus musculus [1] = test: Percent reduction in plasma blood glucose level was evaluated in mice at a dose of 200 mg/kg/day p.o. for 9 days; type: functional; details: route oral
Mus musculus [2] = test: Percent reduction in plasma triglyceride level was evaluated in mice at a dose of 200 mg/kg/day p.o. for 9 days; type: functional; details: route oral
Mus musculus [3] = test: Percent reduction in plasma triglyceride level was evaluated in mice at a dose of 200 mg/kg/day p.o. for 9 days; not applicable; type: functional, organism-based

SMILES: CCN(CCOc1ccc(/C=C2\SC(=O)NC2=O)cc1)CC1(C)CCc2c(C)c(O)c(C)c(C)c2O1 (stereo not given)
- Reduction (Mus musculus [1]): 2%
- Reduction (Mus musculus [2]): 76%

SMILES: Cc1c(C)c2c(c(C)c1OCc1ccccc1)CCC(C)(CN(C)CCOc1ccc(/C=C3\SC(=O)NC3=O)cc1)O2 (stereo not given)
- Reduction (Mus musculus [1]): 39%
- Reduction (Mus musculus [2]): 32%

SMILES: Cc1c(C)c2c(c(C)c1O)C(CN(C)CCOc1ccc(/C=C3\SC(=O)NC3=O)cc1)C(C)(C)O2 (stereo not given)
- Reduction (Mus musculus [1]): 46%
- Reduction (Mus musculus [2]): 71%

SMILES: Cc1c(C)c2c(c(C)c1O)CCC(C)(CNCCOc1ccc(/C=C3\SC(=O)NC3=O)cc1)O2 (stereo not given)
- Reduction (Mus musculus [1]): 6%
- Reduction (Mus musculus [2]): 29%

SMILES: Cc1c(C)c2c(c(C)c1O)CCC(C)(CN(C)CCOc1ccc(/C=C3\SC(=O)NC3=O)cc1)O2.Cl (stereo not given)
- Reduction (Mus musculus [1]): 31%
- Reduction (Mus musculus [2]): 30%

SMILES: Cc1c(C)c2c(c(C)c1O)C(CN(C)CCOc1ccc(CC3SC(=O)NC3=O)cc1)C(C)(C)O2 (stereo not given)
- Reduction (Mus musculus [1]): 17%
- Reduction (Mus musculus [2]): 33%

SMILES: Cc1c(C)c2c(c(C)c1O)C(COc1ccc(CC3SC(=O)NC3=O)cc1)C(C)(C)O2 (stereo not given)
- Reduction (Mus musculus [1]): 19%
- Reduction (Mus musculus [2]): 40%

SMILES: Cc1c(C)c2c(c(C)c1O)CCC(C)(CN(C)CCOc1ccc(/C=C3\SC(=O)NC3=O)cc1)O2 (stereo not given)
- Reduction (Mus musculus [1]): 43%
- Reduction (Mus musculus [2]): 70%

SMILES: Cc1c(C)c2c(c(C)c1O)CCC(C)(COc1ccc(CC3SC(=O)NC3=O)cc1)O2 (stereo not given) [TROGLITAZONE]
- Reduction (Mus musculus [1]): 24%
- Reduction (Mus musculus [2]): 50%

SMILES: CC(=O)O.Cc1c(C)c2c(c(C)c1O)CCC(C)(CN(C)CCOc1ccc(/C=C3\SC(=O)NC3=O)cc1)O2 (stereo not given)
- Reduction (Mus musculus [1]): 11%
- Reduction (Mus musculus [2]): 31%

SMILES: Cc1c(C)c2c(c(C)c1O)CCC(C)(CN(C)CCOc1ccc(CC3SC(=O)NC3=O)cc1)O2 (stereo not given)
- Reduction (Mus musculus [1]): 4%
- Reduction (Mus musculus [3]): inactive

SMILES: Cc1c(C)c2c(c(C)c1O)CCC(C)(CN(C)CCOc1ccc(/C=C3\SC(=O)NC3=O)cc1)O2.O=C(O)/C=C\C(=O)O (stereo not given)
- Reduction (Mus musculus [1]): 20%
- Reduction (Mus musculus [2]): 60%

SMILES: Cc1c(C)c2c(c(C)c1O)C(CN(C)CCOc1ccc(/C=C3\SC(=O)NC3=O)cc1)C(C)(C)O2.O=C(O)/C=C\C(=O)O (stereo not given)
- Reduction (Mus musculus [1]): 35%
- Reduction (Mus musculus [2]): 33%

SMILES: CS(=O)(=O)O.Cc1c(C)c2c(c(C)c1O)CCC(C)(CN(C)CCOc1ccc(/C=C3\SC(=O)NC3=O)cc1)O2 (stereo not given)
- Reduction (Mus musculus [1]): 20%
- Reduction (Mus musculus [2]): 70%

SMILES: Cc1c(C)c2c(c(C)c1OCc1ccccc1)C(CN(C)CCOc1ccc(/C=C3\SC(=O)NC3=O)cc1)C(C)(C)O2 (stereo not given)
- Reduction (Mus musculus [1]): 23%
- Reduction (Mus musculus [3]): inactive
